Values after ≈ are worked out from the molar mass of the structure shown.
Key:
Type in all cases: functional
[1] = test system: Trichophyton mentagrophytes; test: Antifungal activity against Trichophyton mentagrophytes after 3 to days by serial plate dilution method; conditions: for MIC: Trichophyton mentagrophytes
[2] = test system: Klebsiella pneumoniae; test: Antibacterial activity against Klebsiella pneumoniae after 24 hrs by the disk diffusion method; conditions: for MIC: Klebsiella pneumoniae, 24 h
[3] = test system: Escherichia coli; test: Antibacterial activity against Escherichia coli ATTC 25922 after 24 hrs by the disk diffusion method; conditions: for MIC: Escherichia coli, ATTC 25922, 24 h
[4] = test system: Staphylococcus aureus; test: Antibacterial activity against Staphylococcus aureus ATTC […] after 24 hrs by the disk diffusion method; conditions: for MIC: Staphylococcus aureus, 24 h
[5] = test system: Pseudomonas aeruginosa; test: Antibacterial activity against Pseudomonas aeruginosa ATTC 27853 after 24 hrs by the disk diffusion method; conditions: for MIC: Pseudomonas aeruginosa, ATTC 27853, 24 h
[6] = test system: Aspergillus fumigatus; test: Antifungal activity against Aspergillus fumigatus NICM 902 after 3 to days by serial plate dilution method; conditions: for MIC: Aspergillus fumigatus, NICM 902
[7] = test system: Candida albicans; test: Antifungal activity against Candida albicans NICM 300 after 3 to days by serial plate dilution method; conditions: for MIC: Candida albicans, NICM 300
[8] = test system: Aspergillus flavus; test: Antifungal activity against Aspergillus flavus NICM 524 after 3 to days by serial plate dilution method; conditions: for MIC: Aspergillus flavus, NICM 524

| SMILES | diameter of the inhibition zone (DIZ) [1] [mm] | MIC [1] [µg/mL] | inhibition zone (IZ) [2] [mm] | MIC [2] [µg/mL] | inhibition zone (IZ) [3] [mm] | MIC [3] [µg/mL] | inhibition zone (IZ) [4] [mm] | MIC [4] [µg/mL] | inhibition zone (IZ) [5] [mm] | MIC [5] [µg/mL] | diameter of the inhibition zone (DIZ) [6] [mm] | MIC [6] [µg/mL] | diameter of the inhibition zone (DIZ) [7] [mm] | MIC [7] [µg/mL] | diameter of the inhibition zone (DIZ) [8] [mm] | MIC [8] [µg/mL] |
| --- | --- | --- | --- | --- | --- | --- | --- | --- | --- | --- | --- | --- | --- | --- | --- | --- |
| CSc1ccc(Cc2nn3c(Cc4ccc(SC)cc4)nnc3s2)cc1 | 20 | 6 (≈ 15.1 µM) | 13 | 25 (≈ 62.7 µM) | 16 | 12.5 (≈ 31.4 µM) | 18 | 12.5 (≈ 31.4 µM) | 18 | 6 (≈ 15.1 µM) | 22 | 6 (≈ 15.1 µM) | 19 | 6 (≈ 15.1 µM) | 17 | 25 (≈ 62.7 µM) |
| CSc1ccc(Cc2nnc3sc(-c4ccc(-c5ccc(Cl)cc5[N+](=O)[O-])o4)nn23)cc1 | 17 | 6 (≈ 12.4 µM) | 23 | 6 (≈ 12.4 µM) | 19 | 6 (≈ 12.4 µM) | 18 | 12.5 (≈ 25.8 µM) | 18 | 6 (≈ 12.4 µM) | 22 | 6 (≈ 12.4 µM) | 18 | 12.5 (≈ 25.8 µM) | 18 | 12.5 (≈ 25.8 µM) |
| CSc1ccc(Cc2nnc3sc(-c4ccc(-c5ccccc5C(F)(F)F)o4)nn23)cc1 | 20 | 6 (≈ 12.7 µM) | 25 | 6 (≈ 12.7 µM) | 18 | 12.5 (≈ 26.5 µM) | 19 | 12.5 (≈ 26.5 µM) | 18 | 6 (≈ 12.7 µM) | 20 | 6 (≈ 12.7 µM) | 15 | 25 (≈ 52.9 µM) | 11 | 25 (≈ 52.9 µM) |
| CSc1ccc(Cc2nnc3sc(-c4ccc(-c5ccc(Cl)cc5)o4)nn23)cc1 | 16 | 25 (≈ 57 µM) | 22 | 12.5 (≈ 28.5 µM) | 20 | 6 (≈ 13.7 µM) | 18 | 12.5 (≈ 28.5 µM) | 18 | 6 (≈ 13.7 µM) | 17 | 12.5 (≈ 28.5 µM) | 12 | 25 (≈ 57 µM) | 10 | 25 (≈ 57 µM) |
| CSc1ccc(Cc2nnc3sc(-c4cc(Cl)ccc4Cl)nn23)cc1 | 13 | 25 (≈ 61.4 µM) | 13 | 25 (≈ 61.4 µM) | 12 | 25 (≈ 61.4 µM) | 15 | 25 (≈ 61.4 µM) | 10 | 25 (≈ 61.4 µM) | 11 | 25 (≈ 61.4 µM) | 15 | 25 (≈ 61.4 µM) | 11 | 25 (≈ 61.4 µM) |
| CSc1ccc(Cc2nnc3sc(-c4ccc([N+](=O)[O-])cc4)nn23)cc1 | 11 | 25 (≈ 65.2 µM) | 13 | 12.5 (≈ 32.6 µM) | 17 | 12.5 (≈ 32.6 µM) | 16 | 12.5 (≈ 32.6 µM) | 18 | 6 (≈ 15.6 µM) | 15 | 25 (≈ 65.2 µM) | 14 | 25 (≈ 65.2 µM) | 11 | 25 (≈ 65.2 µM) |
| CSc1ccc(Cc2nnc3sc(-c4ccc(Br)cc4)nn23)cc1 | 13 | 25 (≈ 59.9 µM) | 20 | 25 (≈ 59.9 µM) | 13 | 25 (≈ 59.9 µM) | 15 | 25 (≈ 59.9 µM) | 16 | 25 (≈ 59.9 µM) | 14 | 25 (≈ 59.9 µM) | 13 | 25 (≈ 59.9 µM) | 15 | 12.5 (≈ 30 µM) |
| CSc1ccc(Cc2nnc3sc(-c4ccc(F)cc4)nn23)cc1 | 17 | 12.5 (≈ 35.1 µM) | 25 | 6 (≈ 16.8 µM) | 19 | 12.5 (≈ 35.1 µM) | 18 | 12.5 (≈ 35.1 µM) | 17 | 12.5 (≈ 35.1 µM) | 19 | 12.5 (≈ 35.1 µM) | 10 | 25 (≈ 70.1 µM) | 16 | 12.5 (≈ 35.1 µM) |
| CSc1ccc(Cc2nnc3sc(-c4ccc(-c5cc(Cl)c(Cl)cc5Cl)o4)nn23)cc1 | 17 | 25 (≈ 49.2 µM) | 10 | 25 (≈ 49.2 µM) | 12 | 25 (≈ 49.2 µM) | 13 | 25 (≈ 49.2 µM) | 10 | 25 (≈ 49.2 µM) | 12 | 25 (≈ 49.2 µM) | 12 | 25 (≈ 49.2 µM) | 17 | 12.5 (≈ 24.6 µM) |
| CSc1ccc(Cc2nnc3sc(-c4ccc(-c5ccc(Br)cc5)o4)nn23)cc1 | 20 | 6 (≈ 12.4 µM) | 15 | 25 (≈ 51.7 µM) | 11 | 25 (≈ 51.7 µM) | 12 | 25 (≈ 51.7 µM) | 11 | 25 (≈ 51.7 µM) | 20 | 6 (≈ 12.4 µM) | 18 | 6 (≈ 12.4 µM) | 17 | 12.5 (≈ 25.9 µM) |
| CSc1ccc(Cc2nnc3sc(-c4ccc(Cl)c(Cl)c4Cl)nn23)cc1 | 17 | 25 (≈ 56.6 µM) | 24 | 6 (≈ 13.6 µM) | 19 | 12.5 (≈ 28.3 µM) | 18 | 12.5 (≈ 28.3 µM) | 17 | 12.5 (≈ 28.3 µM) | 13 | 25 (≈ 56.6 µM) | 10 | 25 (≈ 56.6 µM) | 15 | 25 (≈ 56.6 µM) |
| CSc1ccc(Cc2nnc3sc(Cc4ccccc4)nn23)cc1 | 12 | 25 (≈ 70.9 µM) | 14 | 25 (≈ 70.9 µM) | 11 | 25 (≈ 70.9 µM) | 11 | 25 (≈ 70.9 µM) | 15 | 25 (≈ 70.9 µM) | 13 | 25 (≈ 70.9 µM) | 17 | 6 (≈ 17 µM) | 10 | 25 (≈ 70.9 µM) |
| CSc1ccc(Cc2nnc3sc(-c4ccc(-c5ccc([N+](=O)[O-])cc5)o4)nn23)cc1 | 11 | 25 (≈ 55.6 µM) | 20 | 12.5 (≈ 27.8 µM) | 17 | 25 (≈ 55.6 µM) | 16 | 25 (≈ 55.6 µM) | 10 | 25 (≈ 55.6 µM) | 14 | 25 (≈ 55.6 µM) | 17 | 12.5 (≈ 27.8 µM) | 11 | 25 (≈ 55.6 µM) |
| CSc1ccc(Cc2nnc3sc(-c4cc(F)c(Cl)cc4Cl)nn23)cc1 | 19 | 6 (≈ 14.1 µM) | 23 | 6 (≈ 14.1 µM) | 20 | 6 (≈ 14.1 µM) | 19 | 12.5 (≈ 29.4 µM) | 17 | 12.5 (≈ 29.4 µM) | 21 | 6 (≈ 14.1 µM) | 20 | 6 (≈ 14.1 µM) | 18 | 6 (≈ 14.1 µM) |
| CSc1ccc(Cc2nnc3sc(-c4ccc([N+](=O)[O-])cc4Cl)nn23)cc1 | 19 | 6 (≈ 14.4 µM) | 23 | 6 (≈ 14.4 µM) | 18 | 12.5 (≈ 29.9 µM) | 19 | 12.5 (≈ 29.9 µM) | 17 | 12.5 (≈ 29.9 µM) | 22 | 6 (≈ 14.4 µM) | 20 | 6 (≈ 14.4 µM) | 17 | 12.5 (≈ 29.9 µM) |
| CSc1ccc(Cc2nnc3sc(-c4ccc(O)cc4)nn23)cc1 | 18 | 6 (≈ 16.9 µM) | 17 | 25 (≈ 70.5 µM) | 10 | 25 (≈ 70.5 µM) | 12 | 25 (≈ 70.5 µM) | 12 | 25 (≈ 70.5 µM) | 22 | 6 (≈ 16.9 µM) | 20 | 6 (≈ 16.9 µM) | 18 | 12.5 (≈ 35.3 µM) |
| Cc1cc(C2CCCCC2)n(O)c(=O)c1.NCCO [CICLOPIROX OLAMINE] | 20 | 6 |  |  |  |  |  |  |  |  | 22 | 6 | 20 | 6 | 18 | 12.5 |

— ChEMBL document CHEMBL1138545, “Synthesis and antimicrobial activities of some new triazolothiadiazoles bearing 4-methylthiobenzyl moiety” (2009)
